{"source": "paper PMC4467398", "about": "“Preclinical antitumor activity of ST7612AA1: a new oral thiol-based histone deacetylase (HDAC) inhibitor” (Oncotarget, 2014)", "system": "DOHH2 and TMD8 DLBCL cells", "assay": "Gene expression profiling (HumanHT-12 v4 BeadChip, limma), ST7612AA1 300 nM 8 hrs vs DMSO", "format": "cell-based, human", "key": {"[1]": {"settings": "300 nM, 8 hours, fold change > 1.5, adjusted p-value < 0.005"}}, "data": [{"smiles": "CC(=O)SCCCCC[C@H](NC(=O)[C@H]1CCC(=O)N1)C(=O)Nc1ccccc1", "note": "[ST7612AA1]", "values": [{"measurement": "log ratio YPEL5 (probe ILMN_1711069)", "setting": "300 nM 8 hrs vs DMSO", "value": "6.99E-01"}, {"measurement": "log ratio YRDC (ILMN_2061732)", "setting": "300 nM 8 hrs vs DMSO", "value": "-8.81E-01"}, {"measurement": "log ratio ZBTB42 (ILMN_3239445)", "setting": "300 nM 8 hrs vs DMSO", "value": "6.62E-01"}, {"measurement": "log ratio ZDHHC8 (probe ILMN_1789492)", "setting": "300 nM 8 hrs vs DMSO", "value": "8.85E-01"}, {"measurement": "log ratio ZFP161 (ILMN_1772522)", "setting": "300 nM 8 hrs vs DMSO", "value": "-5.98E-01"}, {"measurement": "log ratio ZFX (ILMN_1687484)", "setting": "300 nM 8 hrs vs DMSO", "value": "-6.10E-01"}, {"measurement": "log ratio ZMAT3 (ILMN_1654262)", "setting": "300 nM 8 hrs vs DMSO", "value": "5.95E-01"}, {"measurement": "log ratio ZMYND11 (ILMN_1754234)", "setting": "300 nM 8 hrs vs DMSO", "value": "-1.27E+00"}, {"measurement": "log ratio ZNF385A (ILMN_1786722)", "setting": "300 nM 8 hrs vs DMSO", "value": "6.67E-01"}, {"measurement": "log ratio ZNF532 (ILMN_1731358)", "setting": "300 nM 8 hrs vs DMSO", "value": "-8.77E-01"}, {"measurement": "log ratio ZNF689 (ILMN_1759008)", "setting": "300 nM 8 hrs vs DMSO", "value": "-8.10E-01"}, {"measurement": "log ratio ZNF692 (ILMN_1800750)", "setting": "300 nM 8 hrs vs DMSO", "value": "-5.98E-01"}, {"measurement": "log ratio ZNF775 (probe ILMN_1691702)", "setting": "300 nM 8 hrs vs DMSO", "value": "7.39E-01"}, {"measurement": "log ratio ZNF791 (ILMN_1758105)", "setting": "300 nM 8 hrs vs DMSO", "value": "6.65E-01"}, {"measurement": "log ratio ZNHIT1 (ILMN_1741491)", "setting": "300 nM 8 hrs vs DMSO", "value": "6.13E-01"}, {"measurement": "log ratio ZNRD1 (ILMN_1692486)", "setting": "300 nM 8 hrs vs DMSO", "value": "-8.14E-01"}, {"measurement": "log ratio ZNRD1 (ILMN_2398587)", "setting": "300 nM 8 hrs vs DMSO", "value": "-8.04E-01"}, {"measurement": "log ratio ZSCAN16 (ILMN_1809566)", "setting": "300 nM 8 hrs vs DMSO", "value": "6.84E-01"}, {"measurement": "log ratio ZZZ3 (ILMN_1653618)", "setting": "300 nM 8 hrs vs DMSO", "value": "-7.87E-01"}, {"measurement": "log ratio probe ILMN_1862217 (no symbol)", "setting": "300 nM 8 hrs vs DMSO", "value": "6.82E-01"}, {"measurement": "log ratio probe ILMN_1865056 (no symbol)", "setting": "300 nM 8 hrs vs DMSO", "value": "5.95E-01"}, {"measurement": "log ratio probe ILMN_1880086 (no symbol)", "setting": "300 nM 8 hrs vs DMSO", "value": "6.47E-01"}, {"measurement": "log ratio probe ILMN_1886515 (no symbol given)", "setting": "300 nM 8 hrs vs DMSO", "value": "-8.79E-01"}, {"measurement": "number of genes down-regulated", "setting": "[1]", "value": 563, "unit": "genes"}, {"measurement": "number of genes up-regulated", "setting": "[1]", "value": 674, "unit": "genes"}, {"measurement": "AveExpr.ST7612", "setting": "2000-08-31 ILMN_1776157", "value": "9.23E-01"}, {"measurement": "log ratio", "setting": "2000-08-31 ILMN_1776157", "value": "9.23E-01"}, {"measurement": "AveExpr.ST7612", "setting": "ABHD8 ILMN_1712707", "value": "9.18E-01"}, {"measurement": "log ratio", "setting": "ABHD8 ILMN_1712707", "value": "9.18E-01"}, {"measurement": "AveExpr.ST7612", "setting": "ACBD7 ILMN_1726388", "value": "1.07E+00"}, {"measurement": "log ratio", "setting": "ACBD7 ILMN_1726388", "value": "1.07E+00"}, {"measurement": "AveExpr.ST7612", "setting": "ADRB2 ILMN_1695590", "value": "1.02E+00"}, {"measurement": "log ratio", "setting": "ADRB2 ILMN_1695590", "value": "1.02E+00"}, {"measurement": "AveExpr.ST7612", "setting": "ANG ILMN_1760727", "value": "1.06E+00"}, {"measurement": "log ratio", "setting": "ANG ILMN_1760727", "value": "1.06E+00"}, {"measurement": "AveExpr.ST7612", "setting": "ANKRD13A ILMN_1689908", "value": "1.03E+00"}, {"measurement": "log ratio", "setting": "ANKRD13A ILMN_1689908", "value": "1.03E+00"}, {"measurement": "AveExpr.ST7612", "setting": "ATP6V0D1 ILMN_1795826", "value": "1.00E+00"}, {"measurement": "log ratio", "setting": "ATP6V0D1 ILMN_1795826", "value": "1.00E+00"}, {"measurement": "AveExpr.ST7612", "setting": "ATP6V1A ILMN_1711516", "value": "9.54E-01"}, {"measurement": "log ratio", "setting": "ATP6V1A ILMN_1711516", "value": "9.54E-01"}, {"measurement": "AveExpr.ST7612", "setting": "BAG3 ILMN_1659766", "value": "1.06E+00"}, {"measurement": "log ratio", "setting": "BAG3 ILMN_1659766", "value": "1.06E+00"}, {"measurement": "AveExpr.ST7612", "setting": "BLVRA ILMN_1691436", "value": "1.07E+00"}, {"measurement": "log ratio", "setting": "BLVRA ILMN_1691436", "value": "1.07E+00"}, {"measurement": "AveExpr.ST7612", "setting": "BMP6 ILMN_1747650", "value": "1.06E+00"}, {"measurement": "log ratio", "setting": "BMP6 ILMN_1747650", "value": "1.06E+00"}, {"measurement": "AveExpr.ST7612", "setting": "C9orf95 ILMN_1674650", "value": "9.57E-01"}, {"measurement": "log ratio", "setting": "C9orf95 ILMN_1674650", "value": "9.57E-01"}, {"measurement": "AveExpr.ST7612", "setting": "C16orf93 ILMN_2179726", "value": "9.06E-01"}, {"measurement": "log ratio", "setting": "C16orf93 ILMN_2179726", "value": "9.06E-01"}, {"measurement": "AveExpr.ST7612", "setting": "CA2 ILMN_1662795", "value": "1.03E+00"}, {"measurement": "log ratio", "setting": "CA2 ILMN_1662795", "value": "1.03E+00"}, {"measurement": "AveExpr.ST7612", "setting": "CBLB ILMN_1685580", "value": "9.03E-01"}, {"measurement": "log ratio", "setting": "CBLB ILMN_1685580", "value": "9.03E-01"}, {"measurement": "AveExpr.ST7612", "setting": "CLEC16A ILMN_1781752", "value": "1.06E+00"}, {"measurement": "log ratio", "setting": "CLEC16A ILMN_1781752", "value": "1.06E+00"}, {"measurement": "AveExpr.ST7612", "setting": "CPNE3 ILMN_1773576", "value": "9.17E-01"}, {"measurement": "log ratio", "setting": "CPNE3 ILMN_1773576", "value": "9.17E-01"}, {"measurement": "AveExpr.ST7612", "setting": "CRIP2 ILMN_1694432", "value": "1.09E+00"}, {"measurement": "log ratio", "setting": "CRIP2 ILMN_1694432", "value": "1.09E+00"}, {"measurement": "AveExpr.ST7612", "setting": "DENND5A ILMN_1785356", "value": "1.07E+00"}, {"measurement": "log ratio", "setting": "DENND5A ILMN_1785356", "value": "1.07E+00"}, {"measurement": "AveExpr.ST7612", "setting": "DENND5A ILMN_3245413", "value": "1.02E+00"}, {"measurement": "log ratio", "setting": "DENND5A ILMN_3245413", "value": "1.02E+00"}, {"measurement": "AveExpr.ST7612", "setting": "DNMT3B ILMN_2328972", "value": "1.03E+00"}, {"measurement": "log ratio", "setting": "DNMT3B ILMN_2328972", "value": "1.03E+00"}, {"measurement": "AveExpr.ST7612", "setting": "EFNA1 ILMN_2371055", "value": "1.05E+00"}, {"measurement": "log ratio", "setting": "EFNA1 ILMN_2371055", "value": "1.05E+00"}, {"measurement": "AveExpr.ST7612", "setting": "EXTL2 ILMN_1797950", "value": "1.08E+00"}, {"measurement": "log ratio", "setting": "EXTL2 ILMN_1797950", "value": "1.08E+00"}, {"measurement": "AveExpr.ST7612", "setting": "FAM46C ILMN_1713266", "value": "1.07E+00"}, {"measurement": "log ratio", "setting": "FAM46C ILMN_1713266", "value": "1.07E+00"}, {"measurement": "AveExpr.ST7612", "setting": "FAM89B ILMN_1804117", "value": "1.06E+00"}, {"measurement": "log ratio", "setting": "FAM89B ILMN_1804117", "value": "1.06E+00"}]}]}
